Assay results taken from patent US20240376099A1, “COMPOUNDS AND COMPOSITIONS AS INHIBITORS OF ENDOSOMAL TOLL-LIKE RECEPTORS” (Novartis AG, priority 2016, published 2024).

target: T1, TLR7 (Homo sapiens, UniProt Q9NYK1); assay: huPBMC TLR7 Antagonist IFNα Assay; type: cell-based; conditions: human PBMCs stimulated with ssRNA40 10 μg/mL (DOTAP), 14-16 hrs; IFNα2b AlphaLISA read-out
T1 construct: Fresh blood was collected from normal human donors; endogenous in cells; host or cells: human PBMCs from fresh donor blood
T1 sequence (Q9NYK1 27-1049): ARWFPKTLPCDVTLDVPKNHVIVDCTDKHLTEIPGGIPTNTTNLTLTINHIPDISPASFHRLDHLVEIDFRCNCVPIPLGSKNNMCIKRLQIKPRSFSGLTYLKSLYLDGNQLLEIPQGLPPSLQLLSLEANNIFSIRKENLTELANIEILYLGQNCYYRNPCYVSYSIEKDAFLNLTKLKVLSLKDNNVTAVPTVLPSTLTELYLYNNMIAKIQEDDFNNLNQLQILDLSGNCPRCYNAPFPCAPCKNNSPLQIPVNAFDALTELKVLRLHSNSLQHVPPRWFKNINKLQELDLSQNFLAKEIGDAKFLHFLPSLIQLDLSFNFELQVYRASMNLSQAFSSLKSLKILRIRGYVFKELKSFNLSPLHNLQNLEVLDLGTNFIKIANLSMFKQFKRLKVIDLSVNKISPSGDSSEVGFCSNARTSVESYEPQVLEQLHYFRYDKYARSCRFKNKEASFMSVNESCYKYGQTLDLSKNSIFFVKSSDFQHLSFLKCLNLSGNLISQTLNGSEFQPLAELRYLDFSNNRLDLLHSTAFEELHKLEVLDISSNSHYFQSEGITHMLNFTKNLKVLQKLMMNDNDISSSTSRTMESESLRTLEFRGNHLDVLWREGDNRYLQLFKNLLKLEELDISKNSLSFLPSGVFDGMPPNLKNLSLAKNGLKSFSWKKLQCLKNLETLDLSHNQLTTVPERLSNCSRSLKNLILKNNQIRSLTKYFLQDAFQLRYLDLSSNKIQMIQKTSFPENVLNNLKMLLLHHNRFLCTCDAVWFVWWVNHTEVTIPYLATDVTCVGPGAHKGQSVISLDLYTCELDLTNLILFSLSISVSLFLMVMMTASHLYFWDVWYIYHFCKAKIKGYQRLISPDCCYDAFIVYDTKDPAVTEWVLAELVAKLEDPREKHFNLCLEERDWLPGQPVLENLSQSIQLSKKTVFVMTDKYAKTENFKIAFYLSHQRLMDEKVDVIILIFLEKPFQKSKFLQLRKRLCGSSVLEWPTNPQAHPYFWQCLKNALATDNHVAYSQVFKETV
In short: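 Human PBMCs from fresh donor blood (150,000 cells/well) stimulated 14–16 h at 37 °C with DOTAP-complexed ssRNA40 (final 1 μg/ml for TLR8, 10 μg/mL for TLR7) or ODN2216 (final 0.3 μM, TLR9), 0.25% DMSO, ten-point 1/3 compound dilutions. Supernatant IL-6 read by HTRF (TLR8); IFNα by IFNα2b AlphaLISA (TLR7/TLR9).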

Structure (SMILES) | IC50 [µM]
Cc1nc(N2CCc3c(c(C)nn3CC34CCC(NCC5(CO)COC5)(CC3)CC4)C2)c2c(n1)c(C)nn2C [compound 31, (3-(((4-((3-methyl-5-(1,3,5-trimethyl-1H-pyrazolo[4,3-d]pyrimidin-7-yl)-4,5,6,7-tetrahydro-1H-pyrazolo[4,3-c]pyridin-1-yl)methyl)bicyclo[2.2.2]octan-1-yl)amino)methyl)oxetan-3-yl)methanol] | 0.013
Cc1nc(N2CCc3c(c(C)nn3CC34CCC(NC(=O)[C@@H]5COCCN5)(CC3)CC4)C2)c2c(n1)c(C)nn2C [compound 33, (S)-N-(4-((3-methyl-5-(1,3,5-trimethyl-1H-pyrazolo[4,3-d]pyrimidin-7-yl)-4,5,6,7-tetrahydro-1H-pyrazolo[4,3-c]pyridin-1-yl)methyl)bicyclo[2.2.2]octan-1-yl)morpholine-3-carboxamide] | 0.055
Cc1nn(CC23CCC(N)(CC2)CC3)c2c1CN(c1ccnc3[nH]ncc13)CC2 [compound 41, 4-((3-methyl-5-(1H-pyrazolo[3,4-b]pyridin-4-yl)-4,5,6,7-tetrahydro-1H-pyrazolo[4,3-c]pyridin-1-yl)methyl)bicyclo[2.2.2]octan-1-amine] | 0.006
Cc1c2c(nn1CC13CCC(N)(CC1)CC3)CCN(c1ccnc3[nH]ncc13)C2 [compound 42, 4-((3-methyl-5-(1H-pyrazolo[3,4-b]pyridin-4-yl)-4,5,6,7-tetrahydro-2H-pyrazolo[4,3-c]pyridin-2-yl)methyl)bicyclo[2.2.2]octan-1-amine] | 0.017
Cc1cc(N2CCc3c(c(C)nn3CC34CCC(N)(CC3)C4)C2)c2cnn(C)c2n1 [compound 44, 4-((5-(1,6-dimethyl-1H-pyrazolo[3,4-b]pyridin-4-yl)-3-methyl-4,5,6,7-tetrahydro-1H-pyrazolo[4,3-c]pyridin-1-yl)methyl)bicyclo[2.2.1]heptan-1-amine] | 0.038
Cc1cc(N2CCc3c(c(C(F)(F)F)nn3CC34CCC(N)(CC3)CC4)C2)c2cnn(C)c2n1 [compound 45, 4-((5-(1,6-dimethyl-1H-pyrazolo[3,4-b]pyridin-4-yl)-3-(trifluoromethyl)-4,5,6,7-tetrahydro-1H-pyrazolo[4,3-c]pyridin-1-yl)methyl)bicyclo[2.2.2]octan-1-amine] | 0.038
Cc1cc(N2CCc3c(c(C)nn3CC34CCC(NCC(=O)N5CCCCC5)(CC3)CC4)C2)c2cnn(C)c2n1 [compound 99, 2-((4-((5-(1,6-dimethyl-1H-pyrazolo[3,4-b]pyridin-4-yl)-3-methyl-4,5,6,7-tetrahydro-1H-pyrazolo[4,3-c]pyridin-1-yl)methyl)bicyclo[2.2.2]octan-1-yl)amino)-1-(piperidin-1-yl)ethanone] | 0.04
Cc1cc(N2CCc3c(c(C)nn3CC34CCC(NC(=O)CN5CCCC5)(CC3)CC4)C2)c2cnn(C)c2n1 [compound 100, N-(4-((5-(1,6-dimethyl-1H-pyrazolo[3,4-b]pyridin-4-yl)-3-methyl-4,5,6,7-tetrahydro-1H-pyrazolo[4,3-c]pyridin-1-yl)methyl)bicyclo[2.2.2]octan-1-yl)-2-(pyrrolidin-1-yl)acetamide] | 0.005
Cc1cc(N2CCc3c(c(C)nn3CC34CCC(NC(=O)CCN(C)C)(CC3)CC4)C2)c2cnn(C)c2n1 [compound 105, N-(4-((5-(1,6-dimethyl-1H-pyrazolo[3,4-b]pyridin-4-yl)-3-methyl-4,5,6,7-tetrahydro-1H-pyrazolo[4,3-c]pyridin-1-yl)methyl)bicyclo[2.2.2]octan-1-yl)-3-(dimethylamino)propanamide] | 0.014

The next lines start with the values.

IC50 [µM] | Structure (SMILES)
0.013 | Cc1nc(N2CCc3c(c(C)nn3CC34CCC(NC(=O)[C@@H]5CNCCO5)(CC3)CC4)C2)c2c(n1)c(C)nn2C [compound 34, (S)-N-(4-((3-methyl-5-(1,3,5-trimethyl-1H-pyrazolo[4,3-d]pyrimidin-7-yl)-4,5,6,7-tetrahydro-1H-pyrazolo[4,3-c]pyridin-1-yl)methyl)bicyclo[2.2.2]octan-1-yl)morpholine-2-carboxamide]
0.007 | Cc1nc(N2CCc3c(c(C)nn3CC34CCC(NC(=O)[C@H]5CNCCO5)(CC3)CC4)C2)c2c(n1)c(C)nn2C [compound 36, (R)-N-(4-((3-methyl-5-(1,3,5-trimethyl-1H-pyrazolo[4,3-d]pyrimidin-7-yl)-4,5,6,7-tetrahydro-1H-pyrazolo[4,3-c]pyridin-1-yl)methyl)bicyclo[2.2.2]octan-1-yl)morpholine-2-carboxamide]
0.159 | Cc1nc(N2CCc3c(c(C)nn3CC34CCC(N5CCOCC5)(CC3)CC4)C2)c2c(C)noc2n1 [compound 37, 3,6-dimethyl-4-(3-methyl-1-((4-morpholinobicyclo[2.2.2]octan-1-yl)methyl)-6,7-dihydro-1H-pyrazolo[4,3-c]pyridin-5(4H)-yl)isoxazolo[5,4-d]pyrimidine]
0.042 | Cc1nc(N2CCc3c(c(C)nn3CC34CCC(N5CCCCC5)(CC3)CC4)C2)c2c(n1)c(C)nn2C [compound 38, 1,3,5-trimethyl-7-(3-methyl-1-((4-(piperidin-1-yl)bicyclo[2.2.2]octan-1-yl)methyl)-6,7-dihydro-1H-pyrazolo[4,3-c]pyridin-5(4H)-yl)-1H-pyrazolo[4,3-d]pyrimidine]
0.06 | Cc1nc(N2CCc3c(c(C)nn3CC34CCC(N5CCCCC5)(CC3)CC4)C2)c2cnn(C)c2n1 [compound 39, 1,6-dimethyl-4-(3-methyl-1-((4-(piperidin-1-yl)bicyclo[2.2.2]octan-1-yl)methyl)-6,7-dihydro-1H-pyrazolo[4,3-c]pyridin-5(4H)-yl)-1H-pyrazolo[3,4-c]pyrimidine]
0.07 | [2H]C([2H])([2H])N(C([2H])([2H])[2H])C12CCC(Cn3nc(C)c4c3CCN(c3nc(C)nc5c(C)nn(C)c35)C4)(CC1)CC2 [compound 40, 4-((3-methyl-5-(1,3,5-trimethyl-1H-pyrazolo[4,3-d]pyrimidin-7-yl)-4,5,6,7-tetrahydro-1H-pyrazolo[4,3-c]pyridin-1-yl)methyl)-N,N-bis(trideuteromethyl)bicyclo[2.2.2]octan-1-amine]
0.022 | COCCNC12CCC(Cn3nc(C)c4c3CCN(c3cc(C)nc5c3cnn5C)C4)(CC1)OC2 [compound 102, 1-((5-(1,6-dimethyl-1H-pyrazolo[3,4-b]pyridin-4-yl)-3-methyl-4,5,6,7-tetrahydro-1H-pyrazolo[4,3-c]pyridin-1-yl)methyl)-N-(2-methoxyethyl)-2-oxabicyclo[2.2.2]octan-4-amine]
0.063 | Cc1cc(N2CCc3c(c(C)nn3CC34CCC(NCC(=O)N5CCCC5)(CC3)CC4)C2)c2cnn(C)c2n1 [compound 106, 2-((4-((5-(1,6-dimethyl-1H-pyrazolo[3,4-b]pyridin-4-yl)-3-methyl-4,5,6,7-tetrahydro-1H-pyrazolo[4,3-c]pyridin-1-yl)methyl)bicyclo[2.2.2]octan-1-yl)amino)-1-(pyrrolidin-1-yl)ethanone]
0.011 | Cc1cc(N2CCc3c(c(C)nn3CC34CCC(N5CCO[C@H](C)C5)(CC3)CC4)C2)c2cnn(C)c2n1 [compound 107, (R)-4-(4-((5-(1,6-dimethyl-1H-pyrazolo[3,4-b]pyridin-4-yl)-3-methyl-4,5,6,7-tetrahydro-1H-pyrazolo[4,3-c]pyridin-1-yl)methyl)bicyclo[2.2.2]octan-1-yl)-2-methylmorpholine]
